Test results reported in patent US20210045385A1, “PYRIDAZINONE-SUBSTITUTED KETOXIMES AS HERBICIDES” (FMC Corporation, priority 2018, published 2021).

How the values were obtained:
Format in all cases: in vivo
[1] = system: Italian ryegrass (Lolium multiflorum); assay: Test A preemergence, visual plant response rating; details: for Ryegrass, Italian plant response rating (0 to 100 scale): approx. 10 days; for Ryegrass, Italian plant response rating: 125 g ai/ha, preemergence, 0 to 100 scale, 0 no effect, 100 complete control
Procedure, shortened: (§1)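 Ratings use a 0–100 visual scale (100 = complete control) against untreated controls, scored about 10 days after greenhouse treatment. Test chemicals were formulated in surfactant-containing non-phytotoxic solvent and applied either as soil spray after planting (preemergence) or onto one- to two-leaf, 2–10 cm plants (postemergence).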

[2] = system: barnyardgrass (Echinochloa crus-galli); assay: Test A preemergence, visual plant response rating; details: for Barnyardgrass plant response rating (0 to 100 scale): approx. 10 days; for Barnyardgrass plant response rating: 125 g ai/ha, preemergence, 0 to 100 scale, 0 no effect, 100 complete control
Procedure, shortened: as §1

[3] = system: foxtail, green (green foxtail, Setaria viridis); assay: Test A preemergence, visual plant response rating; details: for Foxtail, Green plant response rating (0 to 100 scale): approx. 10 days; for Foxtail, Green plant response rating: 125 g ai/ha, preemergence, 0 to 100 scale, 0 no effect, 100 complete control
Procedure, shortened: as §1

kochia (Kochia scoparia) [4] = assay: Test A preemergence, visual plant response rating; details: for Kochia plant response rating (0 to 100 scale): approx. 10 days; for Kochia plant response rating: 125 g ai/ha, preemergence, 0 to 100 scale, 0 no effect, 100 complete control
Procedure, shortened: as §1

[5] = system: pigweed (Amaranthus retroflexus); assay: Test A preemergence, visual plant response rating; details: for Pigweed plant response rating (0 to 100 scale): approx. 10 days; for Pigweed plant response rating: 125 g ai/ha, preemergence, 0 to 100 scale, 0 no effect, 100 complete control
Procedure, shortened: as §1

[6] = system: ragweed (common ragweed, Ambrosia elatior); assay: Test A preemergence, visual plant response rating; details: for Ragweed plant response rating (0 to 100 scale): approx. 10 days; for Ragweed plant response rating: 125 g ai/ha, preemergence, 0 to 100 scale, 0 no effect, 100 complete control
Procedure, shortened: as §1

[7] = system: Italian ryegrass (Lolium multiflorum); assay: Test A postemergence, visual plant response rating; details: for Ryegrass, Italian plant response rating (0 to 100 scale): 500 g ai/ha, postemergence, 0 is no effect, 100 is complete control; for Ryegrass, Italian plant response rating: Postemergence, 125 g ai/ha, 0 to 100 scale (0 no effect, 100 complete control)
Procedure, shortened: as §1

[8] = system: barnyardgrass (Echinochloa crus-galli); assay: Test A postemergence, visual plant response rating; details: for Barnyardgrass plant response rating (0 to 100 scale): 500 g ai/ha, postemergence, 0 is no effect, 100 is complete control; for Barnyardgrass plant response rating: Postemergence, 125 g ai/ha, 0 to 100 scale (0 no effect, 100 complete control)
Procedure, shortened: as §1

[9] = system: blackgrass (Alopecurus myosuroides); assay: Test A postemergence, visual plant response rating; details: for Blackgrass plant response rating (0 to 100 scale): 500 g ai/ha, postemergence, 0 is no effect, 100 is complete control; for Blackgrass plant response rating: Postemergence, 125 g ai/ha, 0 to 100 scale (0 no effect, 100 complete control)
Procedure, shortened: as §1

corn (Zea mays) = assay: Test A postemergence, visual plant response rating; details: for Corn plant response rating (0 to 100 scale): 500 g ai/ha, postemergence, 0 is no effect, 100 is complete control; for Corn plant response rating: Postemergence, 125 g ai/ha, 0 to 100 scale (0 no effect, 100 complete control)
Procedure, shortened: as §1

[10] = system: foxtail, green (green foxtail, Setaria viridis); assay: Test A postemergence, visual plant response rating; details: for Foxtail, Green plant response rating (0 to 100 scale): 500 g ai/ha, postemergence, 0 is no effect, 100 is complete control; for Foxtail, Green plant response rating: Postemergence, 125 g ai/ha, 0 to 100 scale (0 no effect, 100 complete control)
Procedure, shortened: as §1

[11] = system: galium (catchweed bedstraw, Galium aparine); assay: Test A postemergence, visual plant response rating; details: for Galium plant response rating (0 to 100 scale): 500 g ai/ha, postemergence, 0 is no effect, 100 is complete control; for Galium plant response rating: Postemergence, 125 g ai/ha, 0 to 100 scale (0 no effect, 100 complete control)
Procedure, shortened: as §1

kochia (Kochia scoparia) [12] = assay: Test A postemergence, visual plant response rating; details: for Kochia plant response rating (0 to 100 scale): 500 g ai/ha, postemergence, 0 is no effect, 100 is complete control; for Kochia plant response rating: Postemergence, 125 g ai/ha, 0 to 100 scale (0 no effect, 100 complete control)
Procedure, shortened: as §1

[13] = system: pigweed (Amaranthus retroflexus); assay: Test A postemergence, visual plant response rating; details: for Pigweed plant response rating (0 to 100 scale): 500 g ai/ha, postemergence, 0 is no effect, 100 is complete control; for Pigweed plant response rating: Postemergence, 125 g ai/ha, 0 to 100 scale (0 no effect, 100 complete control)
Procedure, shortened: as §1

[14] = system: ragweed (common ragweed, Ambrosia elatior); assay: Test A postemergence, visual plant response rating; details: for Ragweed plant response rating (0 to 100 scale): 500 g ai/ha, postemergence, 0 is no effect, 100 is complete control; for Ragweed plant response rating: Postemergence, 125 g ai/ha, 0 to 100 scale (0 no effect, 100 complete control)
Procedure, shortened: as §1

[15] = system: wheat (Triticum aestivum); assay: Test A postemergence, visual plant response rating; details: for Wheat plant response rating (0 to 100 scale): 500 g ai/ha, postemergence, 0 is no effect, 100 is complete control; for Wheat plant response rating: Postemergence, 125 g ai/ha, 0 to 100 scale (0 no effect, 100 complete control)
Procedure, shortened: as §1

[16] = system: barnyardgrass (Echinochloa crus-galli); assay: Test B flooded paddy test, visual plant response rating; details: 250 g ai/ha, Flood, applied to paddy water, 2-leaf stage, evaluated after 13 to 15 days
Procedure, shortened: (§2)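 Compounds added straight into paddy water of pots flooded to 3 cm, with 2-leaf-stage plants of the four species; water level held throughout.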

[17] = system: ducksalad (Heteranhera limosa); assay: as above; details: 250 g ai/ha, Flood, applied to paddy water, 2-leaf stage, evaluated after 13 to 15 days
Procedure, shortened: as §2

rice (Oryza sativa) = assay: as above; details: 250 g ai/ha, Flood, applied to paddy water, 2-leaf stage, evaluated after 13 to 15 days
Procedure, shortened: as §2

[18] = system: sedge, umbrella (small-flower umbrella sedge, Cyperus difformis); assay: as above; details: 250 g ai/ha, Flood, applied to paddy water, 2-leaf stage, evaluated after 13 to 15 days
Procedure, shortened: as §2

| SMILES | Ryegrass, Italian plant response rating (0 to 100 scale) ([1]; 500 g ai/ha Preemergence) | Barnyardgrass plant response rating (0 to 100 scale) ([2]; 500 g ai/ha Preemergence) | Foxtail, Green plant response rating (0 to 100 scale) ([3]; 500 g ai/ha Preemergence) | Kochia plant response rating (0 to 100 scale) (kochia (Kochia scoparia) [4]; 500 g ai/ha Preemergence) | Pigweed plant response rating (0 to 100 scale) ([5]; 500 g ai/ha Preemergence) | Ragweed plant response rating (0 to 100 scale) ([6]; 500 g ai/ha Preemergence) | Ryegrass, Italian plant response rating (0 to 100 scale) [7] | Ryegrass, Italian plant response rating [7] | Barnyardgrass plant response rating (0 to 100 scale) [8] | Barnyardgrass plant response rating [8] | Blackgrass plant response rating (0 to 100 scale) [9] | Blackgrass plant response rating [9] | Corn plant response rating (0 to 100 scale) (corn (Zea mays)) | Corn plant response rating (corn (Zea mays)) | Foxtail, Green plant response rating (0 to 100 scale) [10] | Foxtail, Green plant response rating [10] | Galium plant response rating (0 to 100 scale) [11] | Galium plant response rating [11] | Kochia plant response rating (0 to 100 scale) (kochia (Kochia scoparia) [12]) | Kochia plant response rating (kochia (Kochia scoparia) [12]) | further results |
| --- | --- | --- | --- | --- | --- | --- | --- | --- | --- | --- | --- | --- | --- | --- | --- | --- | --- | --- | --- | --- | --- |
| CCn1nc(C)c(O)c(/C(=N/OC)c2cccc(C)c2)c1=O [Compound 1] | 40 | 0 | 30 | 0 | 0 | 10 | 20 | 0 | 10 | 0 | 20 | 0 | 0 | 0 | 10 | 0 | 30 | 0 | 0 | 0 | Ryegrass, Italian plant response rating (0 to 100 scale) ([1]; 125 g ai/ha Preemergence): 0; Barnyardgrass plant response rating (0 to 100 scale) ([2]; 125 g ai/ha Preemergence): 0; Foxtail, Green plant response rating (0 to 100 scale) ([3]; 125 g ai/ha Preemergence): 10; Kochia plant response rating (0 to 100 scale) (kochia (Kochia scoparia) [4]; 125 g ai/ha Preemergence): 0; Pigweed plant response rating (0 to 100 scale) ([5]; 125 g ai/ha Preemergence): 0; Ragweed plant response rating (0 to 100 scale) ([6]; 125 g ai/ha Preemergence): 0; Pigweed plant response rating (0 to 100 scale) [13]: 0; Pigweed plant response rating [13]: 0; Ragweed plant response rating (0 to 100 scale) [14]: 0; Ragweed plant response rating [14]: 0; Wheat plant response rating (0 to 100 scale) [15]: 0; Wheat plant response rating [15]: 0; Plant response rating, Barnyardgrass (0 to 100 scale, 0 is no effect, 100 is complete control) [16]: 0; Plant response rating, Ducksalad (0 to 100 scale, 0 is no effect, 100 is complete control) [17]: 0; Plant response rating, Rice (0 to 100 scale, 0 is no effect, 100 is complete control) (rice (Oryza sativa)): 0; Plant response rating, Sedge, Umbrella (0 to 100 scale, 0 is no effect, 100 is complete control) [18]: 0 |
| CO/N=C(\c1cc(C)ccc1C)c1c(O)c(C)nn(C)c1=O [Compound 66] | 50 | 20 | 60 | 20 | 80 | 50 | 80 | 30 | 30 | 10 | 50 | 0 | 0 | 0 | 20 | 0 | 80 | 60 | 40 | 20 | Ryegrass, Italian plant response rating [1]: 30; Barnyardgrass plant response rating [2]: 0; Foxtail, Green plant response rating [3]: 30; Kochia plant response rating (kochia (Kochia scoparia) [4]): 0; Pigweed plant response rating [5]: 30; Ragweed plant response rating [6]: 20; Pigweed plant response rating (0 to 100 scale) [13]: 50; Pigweed plant response rating [13]: 50; Ragweed plant response rating (0 to 100 scale) [14]: 50; Ragweed plant response rating [14]: 40; Wheat plant response rating (0 to 100 scale) [15]: 10; Wheat plant response rating [15]: 0; Plant response rating, Barnyardgrass (0 to 100 scale, 0 is no effect, 100 is complete control) [16]: 0; Plant response rating, Ducksalad (0 to 100 scale, 0 is no effect, 100 is complete control) [17]: 0; Plant response rating, Rice (0 to 100 scale, 0 is no effect, 100 is complete control) (rice (Oryza sativa)): 0; Plant response rating, Sedge, Umbrella (0 to 100 scale, 0 is no effect, 100 is complete control) [18]: 0 |
| CO/N=C(/c1ccccc1Cl)c1c(O)c(C)nn(C)c1=O [Compound 63] | 50 | 0 | 20 | 20 | 80 | 70 | 70 | 30 | 0 | 0 | 80 | 10 | 0 | 0 | 10 | 0 | 80 | 60 | 30 | 10 | Ryegrass, Italian plant response rating [1]: 10; Barnyardgrass plant response rating [2]: 0; Foxtail, Green plant response rating [3]: 0; Kochia plant response rating (kochia (Kochia scoparia) [4]): 0; Pigweed plant response rating [5]: 0; Ragweed plant response rating [6]: 30; Pigweed plant response rating (0 to 100 scale) [13]: 50; Pigweed plant response rating [13]: 30; Ragweed plant response rating (0 to 100 scale) [14]: 50; Ragweed plant response rating [14]: 30; Wheat plant response rating (0 to 100 scale) [15]: 20; Wheat plant response rating [15]: 0; Plant response rating, Barnyardgrass (0 to 100 scale, 0 is no effect, 100 is complete control) [16]: 0; Plant response rating, Ducksalad (0 to 100 scale, 0 is no effect, 100 is complete control) [17]: 0; Plant response rating, Rice (0 to 100 scale, 0 is no effect, 100 is complete control) (rice (Oryza sativa)): 0; Plant response rating, Sedge, Umbrella (0 to 100 scale, 0 is no effect, 100 is complete control) [18]: 0 |
